Patent publication EP4491625A1, “BENZO BICYCLIC COMPOUND, AND PREPARATION METHOD AND APPLICATION THEREOF” (Guangzhou Unirise Pharmaceutical Co., Ltd., priority 2022, dated 2023)
Like-named read-outs stand apart in the source and are kept apart here.

What was measured:
[1] = Human liver microsome stability test; type: in vitro ADME; conditions: pH 7.4; human liver microsomes 0.5 mg/mL, 1 µM compound, NADPH, 37 °C
Experimental: Preparation of compound working solutions: A high-concentration stock solution of the subject and control drug verapamil powder was prepared in DMSO and diluted to a working solution of 100 µM with DMSO before use, with a final concentration of 1 µM of the subject and verapamil.
Preparation of phosphate buffer salt (100 mM, pH 7.4): 7.098 g of disodium hydrogen phosphate was weighed and dissolved ultrasonically in 500 mL of purified water as solution A. 3.400 g of potassium dihydrogen phosphate was weighed and dissolved ultrasonically in 250 mL of purified water as solution B. Solution B was added to the inside of solution A to give a pH of 7.4.
Preparation of 10 mM NADPH: An appropriate amount of NADPH is now weighed before the experiment and a working solution of 10 mM concentration is prepared from phosphate solution.
Preparation of the incubation system: The incubation system was prepared according to the following table, and the incubation system was preheated in a water bath at 37 °C for 10 minutes before use.
Transfer 25 µL of NADPH or phosphate buffer salt to the above incubation system and add 2.5 µL of 100 µM subject or verapamil. For NADPH-added samples, double-parallel preparations were performed; for NADPH-negative samples, single-parallel preparations were performed.
30 µL of the suspension was taken at 0.5, 5, 15, 30, and 60 min, respectively. The reaction was terminated by adding 150 µL of acetonitrile containing the internal standard and vortexed for 10 min.
This was followed by centrifugation at 3220 g for 40 min for protein precipitation. 100 µL of supernatant was transferred to the injection plate and mixed with 100 µL of pure water for UPLC-MS/MS analysis.
All data calculations were performed by Microsoft Excel software. Peak areas were detected by extracted ion mapping. The in vitro half-life (t1/2) of the parent drug was assayed by fitting the natural logarithm of the percentage elimination of the parent drug linearly with time.
The in vitro half-life (t1/2) was calculated by slope: t1/2 = 0.693 / k
The in vitro clearance (in µL/min/mg) was calculated using the following formula: CLint =0.693/ t1/2 * (Incubation system volume (μL) / protein content (mg)) [formula]
Table 3 the experimental results of human liver microsome of the compounds provided in some examples of the present invention

[2] = biological target: T1, GLP-1 receptor (Homo sapiens, UniProt P43220); assay: cAMP detection assay of agonistic effect in HEK293 cells with high expression of hGLP-1R; type: cell-based
T1 construct: host or cells: HEK293
Experimental: The cells were constructed by Wuxi New Drug Development Co., Ltd. Shanghai.
The compound was prepared with DMSO to a working concentration of 100µM or 10µM. 10 points of 4-fold dilution (maximum concentration of 1000nM or 100nM after dilution) was done with Bravo V11.
The compound to be tested was diluted 4 times with Bravo to obtain 10 concentrations and the initial concentration was 100µM by Bravo V11. The initial concentration was 100µM.

[3] = Pharmacokinetic study in rats (intravenous or gavage, plasma LC-MS/MS); type: in vivo; conditions: SD rats; for F: po 5 mg/kg versus iv 1 mg/kg; for AUC(0-t) / Cmax / Tmax / half-life: rat, plasma
Experimental: SD rats: male, 6-8 weeks old, weighing 200-300 g, purchased from SPF ( Beijing ) Biotechnology Co.,Ltd..
At each PK sampling point, 200 µL of whole blood was collected into EDTA-K2 anticoagulant blood tubes and centrifuged at 4°C for 30 min to obtain plasma. Whole blood samples were placed on wet ice before centrifugation. All collected plasma samples were stored on dry ice or frozen until analyzed.
Approximately1 mg of the compound of the present application was weighed and dissolved in DMSO, vortexed and sonicated to obtain a 1 mg/mL standard stock solution. The standard stock solution was diluted with 50% aqueous acetonitrile to obtain standard working solutions with concentrations of 5, 10, 20, 50, 100, 500, 1000, 5000 and 10000 ng/mL. QC working solutions with concentrations of 10, 20, 500 and 8000 ng/mL were prepared using the same dilution method. These QC samples were prepared on the day of analysis in the same way as the standard curve samples.5 µL of standard working solution with concentrations of (5, 10, 20, 50, 100, 500, 1000, 5000 and 10000 ng/mL) was added to 50 µL of blank SD rat plasma to obtain a total volume of 55 µL with concentrations of 0.5-1000 ng/mL (0.5, 1, 2, 5, 10, 50, 100, 500, and 1000 ng/mL) of standard curve samples. QC samples with concentrations of (1 ng/ml (low-1) and 2 ng/ml (low-2), 50 ng/ml (medium), 800 ng/ml (high)) were configured separately.
55 µL of standard samples, 55 µL of QC samples or 55 µL of unknown samples (50 µL of plasma samples added to 5 µL of 50% aqueous acetonitrile) were added to 200 µL of acetonitrile containing an internal standard (dexamethasone) to precipitate proteins. […] The supernatant was taken and diluted 3-fold with water, and 5 µL of the supernatant dilution was injected into the LC-MS/MS system for quantitative analysis under the following assay conditions:
Column: HALO 90A Phenly-Hexyl, 2µm 2.1×30mm.
Pharmacokinetic parameters were calculated by the […] of Phoenix TM Winnonlin® 8.3 software.

T1 sequence (P43220 24-463): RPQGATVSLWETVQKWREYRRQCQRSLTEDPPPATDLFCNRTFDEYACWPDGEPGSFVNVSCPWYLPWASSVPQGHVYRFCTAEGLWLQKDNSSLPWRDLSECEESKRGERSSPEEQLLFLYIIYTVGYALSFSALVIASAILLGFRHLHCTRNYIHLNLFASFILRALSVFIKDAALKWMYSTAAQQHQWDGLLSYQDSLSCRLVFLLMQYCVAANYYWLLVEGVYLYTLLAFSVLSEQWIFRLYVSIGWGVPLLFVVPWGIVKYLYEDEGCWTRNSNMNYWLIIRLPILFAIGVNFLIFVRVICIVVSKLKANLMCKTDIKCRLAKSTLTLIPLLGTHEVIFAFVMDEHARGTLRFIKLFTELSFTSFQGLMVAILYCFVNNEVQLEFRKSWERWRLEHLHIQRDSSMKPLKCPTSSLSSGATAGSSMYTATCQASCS

| EC50 ([2]; agonistic effect, cAMP, HEK293 cells with high expression of hGLP-1R, read-out: EC50) [nM] | AUC(0-t) ([3]; male, iv, 1 mg/kg) [ng·h/mL] | Cmax ([3]; male, iv, 1 mg/kg) [ng/mL] | Tmax ([3]; male, iv, 1 mg/kg) [h] | half-life ([3]; male, iv, 1 mg/kg) [h] | AUC(0-t) ([3]; male, po, 5 mg/kg) [ng·h/mL] | Cmax ([3]; male, po, 5 mg/kg) [ng/mL] | Tmax ([3]; male, po, 5 mg/kg) [h] | half-life ([3]; male, po, 5 mg/kg) [h] | SMILES | half-life at 1 µM [1] [h] | EC50 [2] [nM] | F [3] [%] | AUC(0-t) ([3]; iv, 1 mg/kg) [ng·h/mL] | Cmax ([3]; iv, 1 mg/kg) [ng/mL] | Tmax ([3]; iv, 1 mg/kg) [h] | half-life ([3]; iv, 1 mg/kg) [h] | AUC(0-t) ([3]; po, 5 mg/kg) [ng·h/mL] | Cmax ([3]; po, 5 mg/kg) [ng/mL] | Tmax ([3]; po, 5 mg/kg) [h] | half-life ([3]; po, 5 mg/kg) [h] |
| --- | --- | --- | --- | --- | --- | --- | --- | --- | --- | --- | --- | --- | --- | --- | --- | --- | --- | --- | --- | --- |
|  |  |  |  |  |  |  |  |  | O=C(O)c1ccc2nc(C[C@H]3CC[C@H](c4cccc(OCc5ccc(Cl)c6cc(F)oc56)n4)CC3)n(C[C@@H]3CCO3)c2c1 [Compound 27B, 2-(((1r,4S)-4-(6-((4-chloro-2-fluorobenzofuran-7-yl)methoxy)pyridin-2-yl)cyclohexyl)methyl)-1-(((S)-oxetan-2-yl)methyl)-1H-benzo[d]imidazole-6-carboxylic acid] | 1.7 | 0.17 | 44.4 | 1680 | 2830 | 0.083 | 0.707 | 3670 | 1160 | 0.833 | 4.18 |
| 0.23 | 1240 | 2300 | 0.083 | 1.15 | 1960 | 754 | 1 | 2.56 | O=C(O)c1ccc2nc(CC3CC=C(c4cccc(OCc5ccc(Cl)c6cc(F)oc56)n4)CC3)n(C[C@@H]3CCO3)c2c1 (stereo partly drawn) [Compound 2, 2-((4-(6-((4-chloro-2-fluorobenzofuran-7-yl)methoxy)pyridin-2-yl)cyclohex-3-en-1-yl)methyl)-1-(((S)-oxetan-2-yl)methyl)-1H-benzo[d]imidazole-6-carboxylic acid] | 2.27 |  | 31.8 |  |  |  |  |  |  |  |  |
